# Experimental data from ChEMBL document CHEMBL3046924 (Biochemistry, 2004).
# Active and inactive are the calls of the source. The rule behind the calls is not given here.
# Columns and labels:
# [1] = molecular target: 4-hydroxyphenylpyruvate dioxygenase (Rattus norvegicus) (UniProt P32755); experiment: Inhibition of Rattus norvegicus (rat) 4-hydroxyphenylpyruvate dioxygenase assessed as formation of homogentisate upto 20 uM by HGA dioxygenase coupling enzyme assay
# [2] = molecular target: T1, 4-hydroxyphenylpyruvate dioxygenase (Arabidopsis thaliana, UniProt P93836); experiment: Inhibition of Arabidopsis thaliana 4-hydroxyphenylpyruvate dioxygenase assessed as formation of homogentisate by HGA dioxygenase coupling enzyme assay; details: read-out: I50
# T1 sequence (P93836 whole entry): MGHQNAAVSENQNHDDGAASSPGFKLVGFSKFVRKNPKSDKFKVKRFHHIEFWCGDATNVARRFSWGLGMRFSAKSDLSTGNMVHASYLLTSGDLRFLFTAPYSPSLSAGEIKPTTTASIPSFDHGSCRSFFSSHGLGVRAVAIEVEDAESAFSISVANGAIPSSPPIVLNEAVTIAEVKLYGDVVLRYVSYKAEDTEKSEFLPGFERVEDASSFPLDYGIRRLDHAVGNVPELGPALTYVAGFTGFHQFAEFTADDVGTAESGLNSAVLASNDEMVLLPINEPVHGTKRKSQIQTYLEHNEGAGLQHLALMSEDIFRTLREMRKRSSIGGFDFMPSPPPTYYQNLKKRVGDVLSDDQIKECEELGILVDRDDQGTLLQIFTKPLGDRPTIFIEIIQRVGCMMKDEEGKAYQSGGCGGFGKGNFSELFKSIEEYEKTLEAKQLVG
# [3] = molecular target: 4-hydroxyphenylpyruvate dioxygenase (Rattus norvegicus, UniProt P32755); experiment: Inhibition of Rattus norvegicus (rat) 4-hydroxyphenylpyruvate dioxygenase assessed as formation of homogentisate by HGA dioxygenase coupling enzyme assay; details: read-out: I50
# Chain of 4-hydroxyphenylpyruvate dioxygenase (Rattus norvegicus, UniProt P32755) (P32755 whole entry): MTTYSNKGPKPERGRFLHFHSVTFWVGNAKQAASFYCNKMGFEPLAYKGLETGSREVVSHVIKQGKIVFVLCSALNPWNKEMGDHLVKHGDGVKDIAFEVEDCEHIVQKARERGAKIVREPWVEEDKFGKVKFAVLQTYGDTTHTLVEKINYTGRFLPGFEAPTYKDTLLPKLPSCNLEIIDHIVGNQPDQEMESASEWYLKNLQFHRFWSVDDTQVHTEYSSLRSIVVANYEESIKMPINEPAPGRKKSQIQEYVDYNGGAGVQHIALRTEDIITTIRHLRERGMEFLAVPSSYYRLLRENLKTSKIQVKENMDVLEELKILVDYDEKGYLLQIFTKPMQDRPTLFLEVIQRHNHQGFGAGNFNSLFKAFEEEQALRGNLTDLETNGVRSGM
# Chain of 4-hydroxyphenylpyruvate dioxygenase (Rattus norvegicus) (P32755 whole entry): as above
SMILES,inhibition [1],IC50 [2] [nM],IC50 [3] [nM]
CC(C)(C)n1nc(-c2ccc(Cl)cc2Cl)c(C(=O)c2ccc(S(C)(=O)=O)cc2Cl)c1O,inactive,–,–
COc1ccc(-c2c(S(C)(=O)=O)ccc(C(=O)c3cnn(C(C)(C)C)c3O)c2C)cc1,–,7,< 20
